Laboratory results taken from paper PMC5513091, “A novel Alzheimer’s disease drug candidate targeting inflammation and fatty acid metabolism” (Alzheimer's Research & Therapy, 2017).

What was measured:
normal rodents = tested on: normal rodents; design: method as in PMID 22194796, PMID 23673233, PMID 27149904; settings: cited from earlier work
[1] = tested on: Primary embryonic day 18 cortical cells; assay: Trophic factor withdrawal assay; assay type: cell-based; settings: Cortical neurone; Cortical neuron; cell viability; read-out: Half-maximal effective concentration, Trophic factor withdrawal
Protocol: (§1) The various phenotypic screening assays were conducted as previously described. Briefly, HT-22, primary cortical neurons, or MC65 was plated and exposed to the different environmental stresses. Cells were treated with varying concentrations of CAD-31, and half-maximal effective concentration (EC50) was determined on the basis of cell viability.
(§2) • An assay that mimics the dramatic loss of neurotrophic support in the old brain is the trophic factor withdrawal assay. Primary embryonic day 18 cortical cells are plated at low density in serum-free medium. At low density, the cells die within 2 days; they can be rescued by combinations of neurotrophic growth factors, but not by one alone ([19] and unpublished data). […] BDNF is a molecule that is also involved in promoting memory and neurogenesis and is reduced in the brain with age and in AD, as well as in other neurological disorders. BDNF has long been considered a drug target for AD [23]. […] A reduction in GSH is a common denominator of old age and essentially all chronic central nervous system (CNS) diseases. J147 and CAD-31 both effectively reduce oxidative stress, with EC50 of 6 nM and 20 nM, respectively. • CAD-31 also prevents loss of energy metabolism that leads to neuron cell death in an in vitro ischemia model. […]

rat hippocampal neurons = assay: Aβ toxicity (extracellular); assay type: cell-based; settings: Hippocampal neuron, read-out: Half-maximal effective concentration, Aβ toxicity (extracellular)
primary cortical neurons = assay: Oxytosis; assay type: cell-based; settings: Primary cortical neuron; read-out: Half-maximal effective concentration, Oxytosis
Protocol: as §1, §2

MC65 = assay: Aβ toxicity (intracellular); assay type: cell-based, human; settings: Homo sapiens, MC65, MC65; read-out: Half-maximal effective concentration, Aβ toxicity (intracellular)
Protocol: as §1
• An assay that mimics the dramatic loss of neurotrophic support in the old brain is the trophic factor withdrawal assay. Primary embryonic day 18 cortical cells are plated at low density in serum-free medium. At low density, the cells die within 2 days; they can be rescued by combinations of neurotrophic growth factors, but not by one alone ([19] and unpublished data). […] BDNF is a molecule that is also involved in promoting memory and neurogenesis and is reduced in the brain with age and in AD, as well as in other neurological disorders. BDNF has long been considered a drug target for AD [23]. […] A reduction in GSH is a common denominator of old age and essentially all chronic central nervous system (CNS) diseases. J147 and CAD-31 both effectively reduce oxidative stress, with EC50 of 6 nM and 20 nM, respectively. • CAD-31 also prevents loss of energy metabolism that leads to neuron cell death in an in vitro ischemia model. […] Intracellular Aβ toxicity was assayed in the human neuron cell line MC65 that conditionally expresses the C99 fragment of the amyloid precursor protein. When the cells are induced to make Aβ, the cells die within 4 days. Both J147 and CAD-31 block this toxicity at around 10 nM. Therefore, CAD-31 has a repertoire of neuroprotective activities similar but not identical to that of its parent compound, J147.

[2] = tested on: senescence-accelerated mouse-prone 8 (SAMP8) mice; design: method as in PMID 26564964; settings: model of sporadic AD; cited from earlier work
Aβ1–42 = Aβ1–42 (Homo sapiens, UniProt P05067); assay: Thioflavin S Aβ1–42 aggregation assay; assay type: biochemical; settings: data not shown
HT22 = assay: In vitro ischemia; assay type: cell-based; settings: Mus musculus, HT-22, read-out: Half-maximal effective concentration, In vitro ischemia
Protocol: as §1, §2

APPswe/PS1∆E9 mice = tested on: APPswe/PS1∆E9 mice; design: method as in PMID 22194796, PMID 23673233, PMID 27149904; settings: administered to 3-month-old APPswe/PS1∆E9 mice for 7 months; cited from earlier work
[3] = tested on: very old transgenic AD mice; design: method as in PMID 23673233; settings: fed to very old transgenic AD mice; cited from earlier work
[4] = tested on: HT22 cells expressing the brain-derived neurotrophic factor (BDNF) receptor transmembrane receptor kinase B; assay: BDNF-like activity (rescue from serum starvation); assay type: cell-based; settings: Mus musculus, HT-22, read-out: Half-maximal effective concentration, BDNF-like activity
Protocol: as §1, §2

[5] = tested on: APPswe/PS1∆E9-transgenic mice; design: method as in PMID 23785163; settings: fed to APPswe/PS1∆E9-transgenic mice, preventive paradigm; cited from earlier work

Sequence of Aβ1–42 (P05067 672-713 limits assumed): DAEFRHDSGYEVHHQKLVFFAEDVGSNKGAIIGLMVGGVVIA

SMILES: COc1cccc(/C=N/N(C(=O)C(F)(F)F)c2ccc(C)cc2C)c1 [J147, reference compound]
- memory (normal rodents): facilitates memory in normal rodents
- EC50 [1]: 35 nM
- EC50 (rat hippocampal neurons): 15 nM
- EC50 (primary cortical neurons): 6 nM
- EC50 (MC65): ~10 nM
- loss of synaptic proteins and cognitive decline [2]: prevents the loss of synaptic proteins and cognitive decline
- binding to and direct inhibition of Aβ1–42 aggregation (Aβ1–42): Neither J147 nor CAD-31 binds to and directly inhibits Aβ1–42 aggregation
- EC50 (HT22): 14 nM
- loss of synaptic proteins and cognitive decline (APPswe/PS1∆E9 mice): prevents the loss of synaptic proteins and cognitive decline
- memory deficits and AD pathology [3]: reverses memory deficits and some AD pathology
- EC50 [4]: 74 nM

SMILES: COc1cc(/C=C/c2cc(/C=C/c3ccc(O)c(OC)c3)n(-c3ccccc3)n2)ccc1O [CNB-001]
- accumulation of ubiquitinated, aggregated proteins in the brain [5]: reduces the accumulation of ubiquitinated, aggregated proteins in the brain
